Results on nine compounds are retold here after patent US7807701B2, “Dibenzylamine compounds and pharmaceutical use thereof” (Japan Tobacco Inc., priority 2002, dated 2010).

Where a name gives a salt, the structure may show the parent alone.

Assay [1] concerns the target T1, CETP (Homo sapiens, UniProt P11597).
T1 construct: The donor lipoprotein obtained above was added to plasma of healthy subject; from tissue; host or cells: whole plasma of healthy subject
T1 sequence (P11597 18-493): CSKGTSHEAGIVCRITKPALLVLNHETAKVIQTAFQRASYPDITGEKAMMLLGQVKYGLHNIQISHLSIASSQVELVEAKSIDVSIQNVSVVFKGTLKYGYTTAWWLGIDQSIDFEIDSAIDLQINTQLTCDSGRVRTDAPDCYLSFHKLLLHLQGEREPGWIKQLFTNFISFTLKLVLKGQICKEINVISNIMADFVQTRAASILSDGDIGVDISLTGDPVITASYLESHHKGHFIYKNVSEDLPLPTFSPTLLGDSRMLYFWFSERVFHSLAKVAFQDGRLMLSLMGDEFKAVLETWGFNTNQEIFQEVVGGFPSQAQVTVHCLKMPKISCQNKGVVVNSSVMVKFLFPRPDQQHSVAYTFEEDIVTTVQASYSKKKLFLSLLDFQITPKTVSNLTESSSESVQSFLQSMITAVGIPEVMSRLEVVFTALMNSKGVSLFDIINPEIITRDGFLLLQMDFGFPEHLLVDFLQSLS
The experiment in a line: Inhibitory effect in vitro on CETP activity in total plasma. The conditions noted are these: plasma of healthy subject with [3H]CE-HDL3, 37° C., 4 hr; average values. Type of assay: biochemical. In short, it runs like this:
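Healthy-donor plasma spiked with [3H]cholesteryl ester-labelled HDL3 (1,000 dpm/μL) was incubated with compound (DMF vehicle) for 4 hr at 37 °C or 4 °C. HDL was separated by MgCl2/dextran sulfate precipitation and supernatant radioactivity counted. IC50 is the concentration giving 50% inhibition of CETP activity.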

The test system of assay [2] is CETP. The experiment in a line: Inhibitory effect exo vivo on CETP activity in total plasma of normal hamster. The conditions noted are these: blood taken 2 hr after administration, average values. As to the method:
Potassium bromide (KBr) was added to plasma (40 mL) of healthy subject and the mixture was adjusted to have a specific density d=1.125 g/mL. The mixture was subjected to density gradient centrifugation (227,000×g, 4° C., 17 hr) and a fraction showing a specific density of d>1.125 g/mL (HDL3 fraction) was harvested. The obtained fraction was dialyzed against PBS solution [10 mmol/L Na2HPO4; 10 mmol/L NaH2PO4; 0.15 mol/L NaCl; […] (pH 7.4)]. Then, tritium-labeled cholesterol (37 MBq) was dissolved in 95% ethanol, gradually added to the above-mentioned HDL3 fraction with stirring and incubated at 37° C. for 18 hr. [By this operation, tritium-labeled cholesterol was esterified by the action of lecithin acyl transferase (LCAT) present on the HDL3 surface and taken up into HDL3 as tritium-labeled cholesteryl ester ([^3H]CE)]. After incubation, KBr was added, the mixture was adjusted to have a specific density d=1.21 g/mL, subjected to density gradient centrifugation (227,000×g, 4° C., 17 hr) and a fraction of specific density […] was harvested. The obtained fraction was dialyzed against the aforementioned PBS solution to give HDL3 incorporating [^3H]CE ([^3H]CE-HDL3, specific density: 1.125<d<1.21, specific activity: 10,000 dpm/μL), which was used as a donor lipoprotein.
The compound of the present invention was suspended in 0.5% methyl cellulose solution and orally administered once to a healthy hamster with a plastic gavage needle. Blood was taken at 2 or 4 hr after the administration and CETP activity in plasma was measured according to the following method.
The donor lipoprotein obtained above was added to hamster plasma (100 μL) to prepare [^3H]CE-HDL3-containing plasma (ca. 1,000 dpm/μL). The [^3H]CE-HDL3-containing plasma was dispensed to two microtubes by 25 μL each, and one was incubated at 37° C. and the other was incubated at 4° C. for 4 hr each. After ice-cooling, TBS solution (50 μl) containing 1 mol/L magnesium chloride and 2% dextran sulfate was added to each microtube and the mixture was thoroughly stirred. After keeping at […] for 30 min, the mixture was centrifuged (10,000×g, 4° C., 20 min), and the radioactivity in the obtained supernatant (HDL fraction) was measured with a liquid scintillation counter. The radioactivity of the [^3H]CE-HDL3-containing plasma was measured with a liquid scintillation counter, and taken as the total radioactivity. The transfer rate of [^3H]CE was calculated from the following formula using the total radioactivity (Total count), radioactivity by 37° C. incubation (37° C. count) and radioactivity by 4° C. incubation (4° C. count) of the sample of each individual and taken as the CETP activity. CETP activity(transfer ratio (%))={[(4° C. count)−(37° C. count)]/(Total count)}×100
The CETP activity inhibitory ratio of each compound administration group based on the CETP activity of the solvent administration group as 100% was calculated from the following formula and expressed in %.
CETP activity inhibitory ratio (%)=100−[(CETP activity of each compound administration group)/(CETP activity of solvent administration group)×100]

Broadly, the IC50 is the concentration that inhibits the measured activity by half. Low values mean greater potency in that assay, high ones weaker potency in that assay. Consider `CCN(C[C@H]1CC[C@H](C(=O)O)CC1)c1ccc(OC(F)(F)F)cc1CN(Cc1cc(C(F)(F)F)cc(C(F)(F)F)c1)c1noc(C)n1.Cl` [Example 109, trans-4-{[N-(2-{[N′-[3,5-bis(trifluoromethyl)benzyl]-N′-(5-methyl-[1,2,4]oxadiazol-3-yl)amino]methyl}-4-trifluoromethoxyphenyl)-N-ethylamino]methyl}cyclohexanecarboxylic acid hydrochloride], for which, at CETP [1], the IC50 came out at 160 nM. In the assay on CETP [2] (single oral dose 10 mg/kg), the “CETP activity (%) 2 (hr later)” value was 42.8%.

`CCN(CCCCC(=O)O)c1cc2c(cc1CN(Cc1cc(C#N)cc(C(F)(F)F)c1)c1nnn(C)n1)CCC2.Cl` [Example 39, 5-[N-(6-{[N′-(3-cyano-5-trifluoromethylbenzyl)-N′-(2-methyl-2H-tetrazol-5-yl)amino]methyl}indan-5-yl)-N-ethylamino]pentanoic acid hydrochloride] gave an IC50 on CETP [1] of 880 nM. Also, the “CETP activity (%) 2 (hr later)” value in the assay on CETP [2] (single oral dose 30 mg/kg) was 49.6%.

The compound `CCN(CCCCC(=O)O)c1cc2c(cc1CN(Cc1cc(C(F)(F)F)cc(C(F)(F)F)c1)c1ccn(C)n1)CCC2.Cl` [Example 41, 5-[N-(6-{[N′-[3,5-bis(trifluoromethyl)benzyl]-N′-(1-methyl-1H-pyrazol-3-yl)amino]methyl}indan-5-yl)-N-ethylamino]pentanoic acid hydrochloride] displayed an IC50 against CETP [1] of 510 nM. For the same compound, the “CETP activity (%) 2 (hr later)” value in the assay with CETP [2] (single oral dose 30 mg/kg) was 36.0%.

In the case of `CCN(CCC(C)(C)CC(=O)O)c1ccc(OC(F)(F)F)cc1CN(Cc1cc(C(F)(F)F)cc(C(F)(F)F)c1)c1ccn(C)n1.Cl` [Example 107, 5-[N-(2-{[N′-[3,5-bis(trifluoromethyl)benzyl]-N′-(1-methyl-1H-pyrazol-3-yl)amino]methyl}-4-trifluoromethoxyphenyl)-N-ethylamino]-3,3-dimethylpentanoic acid hydrochloride], the IC50 against CETP [1] was 560 nM. In addition, the “CETP activity (%) 2 (hr later)” value in the assay with CETP [2] (single oral dose 10 mg/kg) was found to be 41.9%.

Consider `CCN(CCCCC(=O)OC)c1cc2c(cc1CN(Cc1cc(C#N)cc(C(F)(F)F)c1)c1nnn(C)n1)CCC2.Cl` [Example 36], for which the “CETP activity (%) 2 (hr later)” value in the assay on CETP [2] (single oral dose 30 mg/kg) was 33.3%.

Consider `CCN(C[C@H]1CC[C@H](C(=O)O)CC1)c1cc2c(cc1CN(Cc1cc(C(F)(F)F)cc(C(F)(F)F)c1)c1nnn(C)n1)CCC2` [Example 51, trans-4-{[N-(6-{[N′-[3,5-bis(trifluoromethyl)benzyl]-N′-(2-methyl-2H-tetrazol-5-yl)amino]methyl}indan-5-yl)-N-ethylamino]methyl}cyclohexanecarboxylic acid hydrochloride], for which inhibition at CETP [1] was half-maximal at 410 nM (IC50).

In the case of `CCN(C[C@H]1CC[C@H](C(=O)O)CC1)c1cc2c(cc1CN(Cc1cc(C(F)(F)F)cc(C(F)(F)F)c1)c1ccn(C)n1)CCCC2` [Example 44, trans-4-{[N-(3-{[N′-[3,5-bis(trifluoromethyl)benzyl]-N′-(1-methyl-1H-pyrazol-3-yl)amino]methyl}-5,6,7,8-tetrahydronaphthalen-2-yl)-N-ethylamino]methyl}cyclohexanecarboxylic acid hydrochloride], on CETP [1], inhibition was half-maximal at 360 nM (IC50).

On CETP [1], `CCN(CC1CCCC1)c1ccc(C(F)(F)F)cc1CN(Cc1cc(C#N)cc(C(F)(F)F)c1)c1nnn(C)n1` [Example 34, 3-{[N-[2-(N′-cyclopentylmethyl-N′-ethylamino)-5-trifluoromethylbenzyl]-N-(2-methyl-2H-tetrazol-5-yl)amino]methyl}-5-trifluoromethylbenzonitrile hydrochloride] had an IC50 of 220 nM.

The compound `CCN(CC1CCCC1)c1cc2c(cc1CN(Cc1cc(C(F)(F)F)cc(C(F)(F)F)c1)c1cc(C)[nH]n1)CCC2` [Example 7, N-[6-(N′-cyclopentylmethyl-N′-ethylamino)indan-5-ylmethyl]-N-[3,5-bis(trifluoromethyl)benzyl]-(5-methyl-1H-pyrazol-3-yl)amine] gave an IC50 at CETP [1] of 270 nM.
